The subject of this assay is RSV strain A2. The assay is described as follows: Antiviral detection test against RSV strain A2 based on ELISA method (Hep-2 cells). It is filed as cell-based, Respiratory Syncytial Virus. The conditions noted are these: for pIC50: RSV A2 virus strain, Hep-2 cells, ELISA OD450; for AK0529 IC50 / IC50 of the compounds of the present invention: ratio of IC50 values against RSV A2 virus strain, control compound AK0529. The procedure: Test Example 1: Antiviral detection test of small molecules against RSV strain A2 based on ELISA method
• Source of cell line: Nanjing Kebai Biotechnology Co., Ltd. • Cell type: human laryngeal carcinoma epithelial cells Hep-2
• 96-well culture plate (Cat.No. 3610, Corning Costar); • Fetal bovine serum (Cat.No. 10099-141, GIBCO); • DMEM medium (Cat.No. 11995500BT, GIBCO); • Envision 2104 microplate reader.
• 1. Day 1: The Hep-2 cells were seeded into a 96-well plate at a density of 1×10^4 cells/well; • 2. Day 2: • A. Compound dilution: The compound in the first well was diluted to 9 µM, and 3-fold gradient dilution was performed, with a total of 10 gradients; • B. The Hep-2 cell plate prepared on Day 1 was taken out from the incubator, the supernatant was discarded, and 100 PFU/well/50 µL of the RSV A2 virus was added to each well. The plate was stood at 37°C in a 5% CO2 incubator for 2 hours, the supernatant was aspirated and discarded, and then 100 µL of the gradient-diluted compound or DMEM maintenance medium containing 2% FBS was added to each well; • 3. Day 5: • A. Add fixative: The gradient-diluted compound or medium was discarded from the wells, and 100 µL/well of fixative (4% paraformaldehyde) was added. The plate was stood at room temperature for 10 minutes, and then was washed once with 250 µL PBS; • B. 100 µL/well of a blocking solution was added, and the plate was incubated at 37°C in a 5% CO2 incubator for 30 minutes; • C. After incubation, the detection antibody (Anti RSV Fpro) was added at 0.3 µg/50 µL/well (6 µg/mL), and the plate was incubated at 37°C in a 5% CO2 incubator for 1 hour; • D. After incubation, the HRP secondary antibody was added (diluted 10,000-fold with 0.2% BSA), and the plate was incubated at 37°C in a 5% CO2 incubator for 1 hour; • E. After incubation, the wells were washed for 4 times with PBST, 250 µL/well, each washing was allowed to stand for 5 minutes, and the liquid in the wells was shaken off after completion of the washing; • F. 100 µL/well of a development solution was added, the plate was incubated at room temperature in the dark for 20 minutes, and 50 µL/well of a reaction termination solution was added. The plate was tapped gently to mix the solutions, and the absorbance at 450 nm was measured using the microplate reader. • 4. Data analysis • Inhibition rate of the compound against the virus = 100% - (SC - CC)/(VC - CC) × 100% • SC: OD450 value of the sample (cells + test compound + virus) • CC: OD450 value of the normal growing cell control (cells) • VC: OD450 value of the virus growth control (cells + virus)
The software Graphpad Prism 6 was used, and the calculation formula XY-analysis/Nonlinear regression (curve fit)/Dose response-Inhibition/log (inhibition) vs. response-Variable slope (four parameters) was adopted to fit the IC50 curve and calculate the IC50 value.
A general note: In an ELISA, binding on a coated surface is turned into a signal by an enzyme label.

Where [1] appears, read: human respiratory syncytial virus.

pIC50: −log10 of the molar value.

For orientation: pIC50 means the negative decadic logarithm of the IC50, by convention in mol/L. “4-(4-(((3-aminooxetan-3-yl)methyl)amino)-6-methylquinazolin-2-yl)-1-((deuteromethyl)imino)-2,3,4,5-tetrahydro-1H-1λ^4-benzo[f][1,4]thiazepine-1-oxide [Example 2-24]”: the pIC50 was above 8.00 and the “AK0529 IC50 / IC50 of the compounds of the present invention” value (shortened to “AK0529 IC50 / IC50”) is recorded as “ratio ≥20”.
Under setting [1], `CN=S1(=O)CCN(c2nc(NCC3(N)COC3)c3cc(C)ccc3n2)Cc2ccccc21` (stereo not drawn) [Example 2-14, 4-(4-(((3-aminooxetan-3-yl)methyl)amino)-6-methylquinazolin-2-yl)-1-(methylimino)-2,3,4,5-tetrahydro-1H-1λ^4-benzo[f][1,4]thiazepine-1-oxide] showed a pIC50 above 8.00.
With `Cc1ccc2nc(N3CCS(=O)(=NC(N)=O)c4ccccc4C3)nc(NCC3(N)COC3)c2c1` (stereo not drawn) [Example 2-16, 1-(4-(4-(((3-aminooxetan-3-yl)methyl)amino)-6-methylquinazolin-2-yl)-1-oxido-2,3,4,5-tetrahydro-1λ^4-benzo[f][1,4]thiazepin-1-ylidene)urea], the pIC50 is below 8.00.
Under setting [1], `Cc1ccc2nc(N3CCS(=N)(=O)c4ccccc4C3)nc(NCC3(N)COC3)c2c1` (stereo not drawn) [Example 2-23, 4-(4-(((3-aminooxetan-3-yl)methyl)amino)-6-methylquinazolin-2-yl)-1-imino-2,3,4,5-tetrahydro-1H-1λ^4-benzo[f][1,4]thiazepine-1-oxide] showed a pIC50 above 8.00.
Same read-out and setting: the figure for `Cc1ccc2nc(N3CCS(=O)(=NC4CC4)c4ccccc4C3)nc(NCC3(N)COC3)c2c1` (stereo not drawn) [Example 2-26, 4-(4-(((3-aminooxetan-3-yl)methyl)amino)-6-methylquinazolin-2-yl)-1-(cyclopropylimino)-2,3,4,5-tetrahydro-1H-1λ^4-benzo[f][1,4]thiazepine-1-oxide] is above 8.00; for `CC(=O)N=S1(=O)CCN(c2nc(NCC3(N)COC3)c3cc(C)ccc3n2)Cc2ccccc21` (stereo not drawn) [Example 2-31, N-(4-(4-(((3-aminooxetan-3-yl)methyl)amino)-6-methylquinazolin-2-yl)-1-oxido-2,3,4,5-tetrahydro-1λ^4-benzo[f][1,4]thiazepin-1-ylidene)acetamide] it is above 8.00.
Still for that read-out and setting: then `Cc1ccc2nc(N3CCS(=O)(=NC(=O)C4(F)CC4)c4ccccc4C3)nc(NCC3(N)COC3)c2c1` (stereo not drawn) [Example 2-32, N-(4-(4-(((3-aminooxetan-3-yl)methyl)amino)-6-methylquinazolin-2-yl)-1-oxido-2,3,4,5-tetrahydro-1λ^4-benzo[f][1,4]thiazepin-1-ylidene)-1-fluorocyclopropane-1-carboxamide], with above 8.00; and `CNC(=O)N=S1(=O)CCN(c2nc(NCC3(N)COC3)c3cc(C)ccc3n2)Cc2ccccc21` (stereo not drawn) [Example 2-37, 1-(4-(4-(((3-aminooxetan-3-yl)methyl)amino)-6-methylquinazolin-2-yl)-1-oxido-2,3,4,5-tetrahydro-1λ^4-benzo[f][1,4]thiazepin-1-ylidene)-3-methylurea], with above 8.00.
Still for that read-out and setting: the figure for `Cc1ccc2nc(N3CCS(=O)(=Nc4cnn(C)c4)c4ccccc4C3)nc(NCC3(N)COC3)c2c1` (stereo not drawn) [Example 2-38, 4-(4-(((3-aminooxetan-3-yl)methyl)amino)-6-methylquinazolin-2-yl)-1-((1-methyl-1H-pyrazol-4-yl)imino)-2,3,4,5-tetrahydro-1H-1λ^4-benzo[f][1,4]thiazepine-1-oxide] is below 8.00; for `CCN=S1(=O)CCN(c2nc(NCC3(N)COC3)c3cc(C)ccc3n2)Cc2ccccc21` (stereo not drawn) [Example 2-43, 4-(4-(((3-aminooxetan-3-yl)methyl)amino)-6-methylquinazolin-2-yl)-1-(ethylimino)-2,3,4,5-tetrahydro-1H-1λ^4-benzo[f][1,4]thiazepine-1-oxide] it is above 8.00.
Turning to `NC1(CNc2nc(N3CCS(=O)(=NC4CC4)c4ccccc4C3)nc3ccc(C(F)F)cc23)COC1` (stereo not drawn) [Example 2-46, 4-(4-(((3-aminooxetan-3-yl)methyl)amino)-6-(difluoromethyl)quinazolin-2-yl)-1-(cyclopropylimino)-2,3,4,5-tetrahydro-1H-1λ^4-benzo[f][1,4]thiazepine-1-oxide], the “AK0529 IC50 / IC50” value is reported as “ratio ≥20”. This compound also showed a pIC50 under setting [1] above 8.00.
Consider `Cc1ccc2nc(N3CCS(=O)(=NC4CC4)c4ccccc4C3)nc(N3CC(O)(CN)C3)c2c1` (stereo not drawn) [Example 4-2, 4-(4-(3-(aminomethyl)-3-hydroxyazetidin-1-yl)-6-methylquinazolin-2-yl)-1-(cyclopropylimino)-2,3,4,5-tetrahydro-benzo[f][1,4]thiazepine-1-oxide], for which, under setting [1], the pIC50 is above 8.00.
Still for that read-out and setting: the figure for `Cc1ccc2nc(N3CCS(=O)(=NCCF)c4ccccc4C3)nc(NCC3(N)COC3)c2c1` (stereo not drawn) [Example 4-5, 4-(4-(((3-aminooxetan-3-yl)methyl)amino)-6-methylquinazolin-2-yl)-1-((2-fluoroethyl)imino)-2,3,4,5-tetrahydrobenzo[f][1,4]thiazepine-1-oxide] is above 8.00; for `Cc1ccc2nc(N3CCS(=O)(=NCC(F)F)c4ccccc4C3)nc(NCC3(N)COC3)c2c1` (stereo not drawn) [Example 4-6, 4-(4-(((3-aminooxetan-3-yl)methyl)amino)-6-methylquinazolin-2-yl)-1-((2,2-difluoroethyl)imino)-2,3,4,5-tetrahydrobenzo[f][1,4]thiazepine-1-oxide] it is above 8.00; for `Cc1ccc2nc(N3CCS(=O)(=NC4CC4)c4ccccc4C3)nc(N[C@@H]3CNC[C@H]3O)c2c1` (stereo partly drawn) [Example 4-10, 1-(cyclopropylimino)-4-(4-(((3R,4R)-4-hydroxypyrrolidin-3-yl)amino)-6-methylquinazolin-2-yl)-2,3,4,5-tetrahydro-benzo[f][1,4]thiazepine-1-oxide] it is above 8.00.
On the same count and under the same terms, then `Cc1ccc2nc(N3CCS(=O)(=NC4CC4)c4ccccc4C3)nc(N[C@H]3C[C@@H](N)C3)c2c1` (stereo partly drawn) [Example 4-13, 4-(4-(((1R,3S)-3-aminocyclobutyl)amino)-6-methylquinazolin-2-yl)-1-(cyclopropylimino)-2,3,4,5-tetrahydro-benzo[f][1,4]thiazepine-1-oxide], with above 8.00.
As to `NC1(CNc2nc(N3CCS(=O)(=NC4CCC4)c4ccccc4C3)nc3ccc(C(F)F)cc23)COC1` (stereo not drawn) [Example 4-16, 4-(4-(((3-aminooxetan-3-yl)methyl)amino)-6-(difluoromethyl)quinazolin-2-yl)-1-(cyclobutylimino)-2,3,4,5-tetrahydro-benzo[f][1,4]thiazepine-1-oxide], the “AK0529 IC50 / IC50” value is recorded as “ratio ≥20”. The pIC50 under setting [1] is above 8.00.
Regarding `N[C@@H]1CCN(c2nc(N3CCS(=O)(=NC4CC4)c4ccccc4C3)nc3ccc(C(F)F)cc23)C1` (stereo partly drawn) [Example 4-28], the pIC50 under setting [1] is above 8.00.
For the compound `Cc1ccc2nc(N3CCS(=O)(=NC4CC4)c4ccccc4C3)nc(N3CC(N)(CO)C3)c2c1` (stereo not drawn) [Example 4-32, 4-(4-(3-amino-3-(hydroxymethyl)azetidin-1-yl)-6-methylquinazolin-2-yl)-1-(cyclopropylimino)-2,3,4,5-tetrahydro-benzo[f][1,4]thiazepine-1-oxide], under setting [1], the negative logarithm of the IC50 (pIC50) is above 8.00.
In turn, `Cc1ccc2nc(N3CCS(=O)(=NCC4CCO4)c4ccccc4C3)nc(N3CC[C@@H](N)C3)c2c1` (stereo partly drawn) [Example 4-39] had a pIC50 above 8.00.
`Cc1ccc2nc(N3CCS(=O)(=NCCCC#N)c4ccccc4C3)nc(N3CC[C@@H](N)C3)c2c1` (stereo partly drawn) [Example 4-47] showed a pIC50 under setting [1] above 8.00.
Still for that read-out and setting: then `Cc1ccc2nc(N3CCS(=O)(=NCCC(C)(C)O)c4ccccc4C3)nc(N3CC[C@@H](N)C3)c2c1` (stereo partly drawn) [Example 4-56], with above 8.00.
As to `COC(=O)C1(CN)CN(c2nc(N3CCS(=O)(=NC4CC4)c4ccccc4C3)nc3ccc(C)cc23)C1` (stereo not drawn) [Example 4-57, methyl 3-(aminomethyl)-1-(2-(1-(cyclopropylimino)-1-oxido-1,2,3,5-tetrahydro-benzo[f][1,4]thiazepin-4-yl)-6-methylquinazolin-4-yl)azetidine-3-carboxylate], the “AK0529 IC50 / IC50” value was “ratio ≥20”. The compound further showed a pIC50 under setting [1] above 8.00.
